{"source": "patent US20080188549A1", "about": "“Composition for Preventing and/or Treating Metabolic Syndrome and Insulin Resistance Syndrome” (Kaneka Corporation, priority 2005, published 2008)", "target": "T1, PPARγ (Mus musculus, UniProt P37238)", "T1 construct": "GAL4 (yeast transcription factor, amino acids 1 to 147); expressed in transfected cells; host or cells: CV-1 cells (African green monkey kidney)", "T1 sequence (P37238 174-475 isoform P37238-2)": "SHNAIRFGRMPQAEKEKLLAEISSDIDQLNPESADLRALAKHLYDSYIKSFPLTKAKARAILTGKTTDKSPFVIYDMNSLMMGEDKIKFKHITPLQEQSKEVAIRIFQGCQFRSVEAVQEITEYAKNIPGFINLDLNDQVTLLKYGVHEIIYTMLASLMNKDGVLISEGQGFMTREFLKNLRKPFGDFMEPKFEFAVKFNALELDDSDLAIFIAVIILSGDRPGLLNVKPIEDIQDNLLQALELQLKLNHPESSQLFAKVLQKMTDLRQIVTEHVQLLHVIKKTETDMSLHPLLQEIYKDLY", "test": "PPARγ ligand activity measurement (GAL4-mPPARγ chimera luciferase reporter assay in CV-1 cells)", "assay_type": "cell-based", "conditions": "for Specific activity (PPARγ ligand activity relative to no-treatment control): CV-1 cells, 24 hours, n=4, 1.5 or above = having PPARγ ligand activity; for PPARγ ligand activity comparison with troglitazone: compared with troglitazone at 0.5 μM, compounds at the concentrations of Table 2", "experimental": "CV-1 cells (male African green monkey kidney-derived cultured cells) were distributed into wells of a 96-well culture plate (6×10^3 cells/well) and cultured under conditions of 37° C. and 5% CO2 for 24 hours. The medium used was DMEM (Dulbecco's modified Eagle medium; GIBCO) containing 10% FBS (fetal bovine serum), 10 ml/L of penicillin-streptomycin solution (5,000 IU/ml and 5,000 μg/ml, respectively; GIBCO) and 37 mg/L of ascorbic acid (Wako Pure Chemical Industries). After rinsing with OPTI-MEM (GIBCO), the cells were transfected with pM-mPPARγ and 4×UASg-luc using Lipofectamine Plus (GIBCO). […] Each sample in the assay group was dissolved in dimethyl sulfoxide (DMSO), and DMSO was used in the no-treatment control group. The solution or DMSO was added to the medium at a level of 1/1000. After washing the cells with Ca- and Mg-containing phosphate buffered saline (PBS^+), LucLite (Packard) was added to each well, and the luciferase-due luminescence intensity was measured using Packard's TopCount microplate scintillation/luminescence counter. Using pM (plasmid deprived of the PPARγ ligand binding site gene) in lieu of pM-mPPARγ, measurements in a control group were carried out in the same manner as in the above assay group. For each sample, the ratio in mean luminescence intensity (n=4) between the assay group and control group (assay group/control group ratio) was calculated, and the specific activity relative to the no-treatment control group was regarded as the PPARγ ligand activity of the sample. When the specific activity was 1.5 or above, the sample was evaluated as having PPARγ ligand activity."}
{"smiles": "COc1c(/C=C/C(=O)c2cc(O)c(O)c(CC=C(C)C)c2)ccc(O)c1O", "note": "[Compound 1, 3,4,3′,4′-tetrahydroxy-2-methoxy-5′-γ,γ-dimethylallylchalcone]", "values": [{"measurement": "Specific activity (PPARγ ligand activity relative to no-treatment control)", "setting": "10 μg/ml", "value": 3.58}, {"measurement": "PPARγ ligand activity comparison with troglitazone", "value": "stronger in PPARγ ligand activity as compared with troglitazone"}]}
{"smiles": "CC(C)=CCc1cc([C@@H]2CC(=O)c3ccc4c(c3O2)C=CC(C)(C)O4)ccc1O", "note": "[Compound 2, shinflavanone]", "values": [{"measurement": "Specific activity (PPARγ ligand activity relative to no-treatment control)", "setting": "10 μg/ml", "value": 3.62}, {"measurement": "PPARγ ligand activity comparison with troglitazone", "value": "stronger in PPARγ ligand activity as compared with troglitazone"}]}
{"smiles": "COc1ccc(C2(O)COc3c(ccc4c3C=CC(C)(C)O4)C2=O)c(O)c1", "note": "(stereo not drawn) [Compound 3, 3,2′-dihydroxy-4′-methoxy-6″,6″-dimethylpyrano[2″,3″:7,8] isoflavanone]", "values": [{"measurement": "Specific activity (PPARγ ligand activity relative to no-treatment control)", "setting": "20 μg/ml", "value": 1.90}, {"measurement": "PPARγ ligand activity comparison with troglitazone", "value": "stronger in PPARγ ligand activity as compared with troglitazone"}]}
